Read-outs that look alike come from different tables or passages of the source.
Experiments:
[1] = format: physicochemical; design: key to Fibril / Fibril Formation / TEM 2cat / Fibril: 1 = fibrils present; 0 non-fibrillar structures; conditions: for Fibril / Fibril Formation / Fibril: TEM; for Fibril / Fibril Formation: 1 mg/mL, uranyl acetate stain, qualitative
[2] = format: physicochemical; conditions: for ThT Cat. / ThT-Fluorescence (categorical): ThT-active if fluorescence at least twice the control
Procedure, shortened: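 Preformed peptide fibrils (1 mg/mL) mixed with 50 µM ThT in PBS, 15 min at RT, fluorescence ex 440/em 488 nm versus PBS blank, triplicates. Zeta potential: peptides at 1 mg/mL in PBS pH 7.4, aged 1 d at RT, diluted in 1 mM KCl, Smoluchowski from electrophoretic mobility.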

[3] = Fig S10 panel D, fibril category by TEM
[4] = 1 = fibrils present, 0 = non-fibrillar
[5] = 1 = fibrils present, 0 = non-fibrillar structures
[6] = category: fibrils present or non-fibrillar
[7] = ThT fluorescence category, 1 if Rel. ThT >2
[8] = FigS12 panel A, fibril category by TEM

MKIKIQINMWQ
TEM 2cat [1, 3]: 1 | Fibril / Fibril Formation [1]: 1 | Fibril [1, 4]: 1 | Fibril [1, 5]: 1 | TEM 2cat [1, 6]: 1 | Tht category (> 2 to blank = +) ([2]; Fig S10 panel D): 1 (ThT. Cat is 1, if Rel. ThT >2) | ThT Cat, ([2]; ThT category, 1 if Rel. ThT >2): 1 (ThT. Cat is 1, if Rel. ThT >2) | ThT Cat. [2, 7]: 1 (ThT. Cat is 1, if Rel. ThT >2) | ThT Cat. / ThT-Fluorescence (categorical) [2]: 1 (ThT. Cat is 1, if Rel. ThT >2)

KIKIKIKI
TEM 2cat [1, 3]: 0 | TEM 2cat [1, 8]: 0 | Fibril ([1]; FigS12 panel B): 0 | Fibril / Fibril Formation [1]: 0 | Fibril [1, 4]: 0 | Fibril [1, 5]: 0 | Tht category (> 2 to blank = +) ([2]; Fig S10 panel D): 1 (ThT. Cat is 1, if Rel. ThT >2) | Tht category (> 2 to blank = +) ([2]; FigS12 panel A): 1 (ThT. Cat is 1, if Rel. ThT >2) | ThT Cat, ([2]; FigS12 panel B): 1 (ThT. Cat is 1, if Rel. ThT >2) | ThT Cat, ([2]; ThT category, 1 if Rel. ThT >2): 1 (ThT. Cat is 1, if Rel. ThT >2) | ThT Cat. [2, 7]: 1 (ThT. Cat is 1, if Rel. ThT >2) | ThT Cat. / ThT-Fluorescence (categorical) [2]: 1 (ThT. Cat is 1, if Rel. ThT >2)

CKIKIQINMW
TEM 2cat [1, 3]: 1 | Fibril / Fibril Formation [1]: 1 | Fibril [1, 4]: 1 | Fibril [1, 5]: 1 | TEM 2cat [1, 6]: 1 | Tht category (> 2 to blank = +) ([2]; Fig S10 panel D): 0 (ThT-inactive (N-Fold <2)) | ThT Cat, ([2]; ThT category, 1 if Rel. ThT >2): 0 (ThT-inactive (N-Fold <2)) | ThT Cat. ([2]; ThT category, 1 if Rel. ThT >2): 0 (ThT-inactive (N-Fold <2)) | ThT Cat. / ThT-Fluorescence (categorical) [2]: 0 (ThT-inactive (N-Fold <2))

KIKIQII
TEM 2cat [1, 3]: 1 | TEM 2cat [1, 8]: 1 | Fibril ([1]; FigS12 panel B): 1 | Fibril / Fibril Formation [1]: 1 | Fibril [1, 4]: 1 | Fibril [1, 5]: 1 | Tht category (> 2 to blank = +) ([2]; Fig S10 panel D): 0 (ThT-inactive (N-Fold <2)) | Tht category (> 2 to blank = +) ([2]; FigS12 panel A): 0 (ThT-inactive (N-Fold <2)) | ThT Cat, ([2]; FigS12 panel B): 0 (ThT-inactive (N-Fold <2)) | ThT Cat, ([2]; ThT category, 1 if Rel. ThT >2): 0 (ThT-inactive (N-Fold <2)) | ThT Cat. [2, 7]: 0 (ThT-inactive (N-Fold <2)) | ThT Cat. / ThT-Fluorescence (categorical) [2]: 0 (ThT-inactive (N-Fold <2))

KFKQFFINMWQ
TEM 2cat [1, 3]: 1 | Fibril / Fibril Formation [1]: 1 | Fibril [1, 4]: 1 | Fibril [1, 5]: 1 | TEM 2cat [1, 6]: 1 | Tht category (> 2 to blank = +) ([2]; Fig S10 panel D): 0 (ThT-inactive (N-Fold <2)) | ThT Cat, ([2]; ThT category, 1 if Rel. ThT >2): 0 (ThT-inactive (N-Fold <2)) | ThT Cat. ([2]; ThT category, 1 if Rel. ThT >2): 0 (ThT-inactive (N-Fold <2)) | ThT Cat. / ThT-Fluorescence (categorical) [2]: 0 (ThT-inactive (N-Fold <2))

QCKFKQFF
TEM 2cat ([1]; Fig S10 panel D): 1 | TEM 2cat [1, 8]: 1 | Fibril ([1]; FigS12 panel B): 1 | Fibril / Fibril Formation [1]: 1 | Fibril [1, 4]: 1 | Fibril [1, 5]: 1 | Tht category (> 2 to blank = +) ([2]; Fig S10 panel D): 1 (ThT. Cat is 1, if Rel. ThT >2) | Tht category (> 2 to blank = +) ([2]; FigS12 panel A): 1 (ThT. Cat is 1, if Rel. ThT >2) | ThT Cat, ([2]; FigS12 panel B): 1 (ThT. Cat is 1, if Rel. ThT >2) | ThT Cat, ([2]; ThT category, 1 if Rel. ThT >2): 1 (ThT. Cat is 1, if Rel. ThT >2) | ThT Cat. ([2]; ThT category, 1 if Rel. ThT >2): 1 (ThT. Cat is 1, if Rel. ThT >2) | ThT Cat. / ThT-Fluorescence (categorical) [2]: 1 (ThT. Cat is 1, if Rel. ThT >2)

KIKIQIMQWN
TEM 2cat [1, 3]: 1 | Fibril / Fibril Formation [1]: 1 | Fibril [1, 4]: 1 | Fibril [1, 5]: 1 | TEM 2cat [1, 6]: 1 | Tht category (> 2 to blank = +) ([2]; Fig S10 panel D): 0 (ThT-inactive (N-Fold <2)) | ThT Cat, ([2]; ThT category, 1 if Rel. ThT >2): 0 (ThT-inactive (N-Fold <2)) | ThT Cat. ([2]; ThT category, 1 if Rel. ThT >2): 0 (ThT-inactive (N-Fold <2)) | ThT Cat. / ThT-Fluorescence (categorical) [2]: 0 (ThT-inactive (N-Fold <2))

CKFKQFFNM
TEM 2cat ([1]; Fig S10 panel D): 1 | Fibril / Fibril Formation [1]: 1 | Fibril [1, 4]: 1 | Fibril [1, 5]: 1 | TEM 2cat [1, 6]: 1 | Tht category (> 2 to blank = +) ([2]; Fig S10 panel D): 1 (ThT. Cat is 1, if Rel. ThT >2) | ThT Cat, ([2]; ThT category, 1 if Rel. ThT >2): 1 (ThT. Cat is 1, if Rel. ThT >2) | ThT Cat. ([2]; ThT category, 1 if Rel. ThT >2): 1 (ThT. Cat is 1, if Rel. ThT >2) | ThT Cat. / ThT-Fluorescence (categorical) [2]: 1 (ThT. Cat is 1, if Rel. ThT >2)

KIKIQINMWWQ
TEM 2cat [1, 3]: 0 | Fibril / Fibril Formation [1]: 0 | Fibril [1, 4]: 0 | Fibril [1, 5]: 0 | TEM 2cat [1, 6]: 0 | Tht category (> 2 to blank = +) ([2]; Fig S10 panel D): 0 (ThT-inactive (N-Fold <2)) | ThT Cat, ([2]; ThT category, 1 if Rel. ThT >2): 0 (ThT-inactive (N-Fold <2)) | ThT Cat. ([2]; ThT category, 1 if Rel. ThT >2): 0 (ThT-inactive (N-Fold <2)) | ThT Cat. / ThT-Fluorescence (categorical) [2]: 0 (ThT-inactive (N-Fold <2))

KLKLQLL
TEM 2cat [1, 3]: 1 | TEM 2cat [1, 8]: 1 | Fibril ([1]; FigS12 panel B): 1 | Fibril / Fibril Formation [1]: 1 | Fibril [1, 4]: 1 | Fibril [1, 5]: 1 | Tht category (> 2 to blank = +) ([2]; Fig S10 panel D): 0 (ThT-inactive (N-Fold <2)) | Tht category (> 2 to blank = +) ([2]; FigS12 panel A): 0 (ThT-inactive (N-Fold <2)) | ThT Cat, ([2]; FigS12 panel B): 0 (ThT-inactive (N-Fold <2)) | ThT Cat, ([2]; ThT category, 1 if Rel. ThT >2): 0 (ThT-inactive (N-Fold <2)) | ThT Cat. [2, 7]: 0 (ThT-inactive (N-Fold <2)) | ThT Cat. / ThT-Fluorescence (categorical) [2]: 0 (ThT-inactive (N-Fold <2))

KIKIQINMWQRGD
TEM 2cat [1, 3]: 0 | TEM 2cat [1, 8]: 0 | Fibril ([1]; FigS12 panel B): 0 | Fibril / Fibril Formation [1]: 0 | Fibril [1, 4]: 0 | Fibril [1, 5]: 0 | Tht category (> 2 to blank = +) ([2]; Fig S10 panel D): 0 (ThT-inactive (N-Fold <2)) | Tht category (> 2 to blank = +) ([2]; FigS12 panel A): 0 (ThT-inactive (N-Fold <2)) | ThT Cat, ([2]; FigS12 panel B): 0 (ThT-inactive (N-Fold <2)) | ThT Cat, ([2]; ThT category, 1 if Rel. ThT >2): 0 (ThT-inactive (N-Fold <2)) | ThT Cat. ([2]; ThT category, 1 if Rel. ThT >2): 0 (ThT-inactive (N-Fold <2)) | ThT Cat. / ThT-Fluorescence (categorical) [2]: 0 (ThT-inactive (N-Fold <2)) | Rel. ThT ([2]; n-fold ThT fluorescence vs control (PBS, 10% DMSO), 4 µL 1 mg/mL fibrils + 20 µL 50 µM ThT, 15 min RT, ex 440 / em 488 nm, triplicate): 1.5

KIKIKIQINMWQ
TEM 2cat [1, 3]: 1 | Fibril / Fibril Formation [1]: 1 | Fibril [1, 4]: 1 | Fibril [1, 5]: 1 | TEM 2cat [1, 6]: 1 | Tht category (> 2 to blank = +) ([2]; Fig S10 panel D): 0 (ThT-inactive (N-Fold <2)) | ThT Cat, ([2]; ThT category, 1 if Rel. ThT >2): 0 (ThT-inactive (N-Fold <2)) | ThT Cat. ([2]; ThT category, 1 if Rel. ThT >2): 0 (ThT-inactive (N-Fold <2)) | ThT Cat. / ThT-Fluorescence (categorical) [2]: 0 (ThT-inactive (N-Fold <2))

KVKVQVV
TEM 2cat [1, 3]: 0 | TEM 2cat [1, 8]: 0 | Fibril ([1]; FigS12 panel B): 0 | Fibril / Fibril Formation [1]: 0 | Fibril [1, 4]: 0 | Fibril [1, 5]: 0 | Tht category (> 2 to blank = +) ([2]; Fig S10 panel D): 0 (ThT-inactive (N-Fold <2)) | Tht category (> 2 to blank = +) ([2]; FigS12 panel A): 0 (ThT-inactive (N-Fold <2)) | ThT Cat, ([2]; FigS12 panel B): 0 (ThT-inactive (N-Fold <2)) | ThT Cat, ([2]; ThT category, 1 if Rel. ThT >2): 0 (ThT-inactive (N-Fold <2)) | ThT Cat. [2, 7]: 0 (ThT-inactive (N-Fold <2)) | ThT Cat. / ThT-Fluorescence (categorical) [2]: 0 (ThT-inactive (N-Fold <2))

HHHHKIKIKIKIWWWW [TM4]
TEM: 1= fibrils, 0= aggregates (micelle), 0.5 = aggregates and fibrils, -1 = nothing obersved, STD prep ([1]; STD prep): 0.5 | Tht rel to blank (42.1851851851852) ([2]; ThT fluorescence relative to blank, blank = 42.1851851851852): 4.025 | Tht category (> 1.5 to blank = +) ([2]; category 1/0): 1 (ThT. Cat is 1, if Rel. ThT >2)

RGDCKIKIQINM
TEM 2cat [1, 3]: 1 | Fibril / Fibril Formation [1]: 1 | Fibril [1, 4]: 1 | Fibril [1, 5]: 1 | TEM 2cat [1, 6]: 1 | Tht category (> 2 to blank = +) ([2]; Fig S10 panel D): 0 (ThT-inactive (N-Fold <2)) | ThT Cat, ([2]; ThT category, 1 if Rel. ThT >2): 0 (ThT-inactive (N-Fold <2)) | ThT Cat. [2, 7]: 0 (ThT-inactive (N-Fold <2)) | ThT Cat. / ThT-Fluorescence (categorical) [2]: 0 (ThT-inactive (N-Fold <2))

KIKIQIRGD
TEM 2cat [1, 3]: 1 | TEM 2cat [1, 8]: 1 | Fibril ([1]; FigS12 panel B): 1 | Fibril / Fibril Formation [1]: 1 | Fibril [1, 4]: 1 | Fibril [1, 5]: 1 | Tht category (> 2 to blank = +) ([2]; Fig S10 panel D): 1 (ThT. Cat is 1, if Rel. ThT >2) | Tht category (> 2 to blank = +) ([2]; FigS12 panel A): 1 (ThT. Cat is 1, if Rel. ThT >2) | ThT Cat, ([2]; FigS12 panel B): 1 (ThT. Cat is 1, if Rel. ThT >2) | ThT Cat, ([2]; ThT category, 1 if Rel. ThT >2): 1 (ThT. Cat is 1, if Rel. ThT >2) | ThT Cat. [2, 7]: 1 (ThT. Cat is 1, if Rel. ThT >2) | ThT Cat. / ThT-Fluorescence (categorical) [2]: 1 (ThT. Cat is 1, if Rel. ThT >2)

Reference: paper PMC10447463, “Data-mining unveils structure–property–activity correlation of viral infectivity enhancing self-assembling peptides” (Nature Communications, 2023)
